Results published in PMC5320394, “Development of a Novel Formulation That Improves Preclinical Bioavailability of Tenofovir Disoproxil Fumarate” (Journal of Pharmaceutical Sciences, 2017).
Counter-ions that a name gives are not always drawn. Like-named read-outs stand apart in the source and are kept apart here. Values belong to the compound of their own block, whether it stands above or below them.

Columns and labels:
[1] = tested on: porcine pancrelipase (PL); assay: Hydrolysis of TDF by PL and effect of enzyme inhibitors; assay type: biochemical; conditions: for protection of TDF against PL hydrolysis: PP or MP together or alone, FaSSIF with PL; for half-life at 10 µM: pig, with none, Control, 10 μM TDF, PL, 37°C, no inhibitor, read-out: TDF t1/2
Procedure: TDF solutions were prepared at 10 μM and incubated in triplicate at 37°C in FaSSIF containing PL at 480 U/mL with and without inhibitors. Inhibitors were added at 10% vol/vol for the oils (sesame, olive, safflower, soybean, and coconut); at 10 mM for PP, MP, and EM1; and at 0.05 mM/0.002 mM for EDTA/PMSF. Controls consisted of TDF in transport media or FaSSIF with and without PL. Samples were incubated at 37°C and quenched with acetonitrile at 10, 15, 20, and 30 min. For each time point, the % TDF or % TFV-ME remaining was determined by LC-MS/MS as described below.

[2] = tested on: rat intestinal S9; assay: TDF stability in rat intestinal S9 fraction and effect of inhibitors; conditions: for inhibition of TDF hydrolysis: rat S9
Procedure: (§3) TDF solutions were prepared at 10 μM in rat or human intestinal S9 fraction (0.5 mg protein/mL). Inhibitors were added to the solutions. […] Control samples included buffer, human S9, or rat S9 solutions with only TDF. Samples were incubated at 37°C for 0, 5, 10, 15, 20, and 30 min and then analyzed by LC-MS/MS for TDF, TFV-ME, TFV, and PP (to quantify stability).
(§4) Samples from S9 incubations were analyzed using the LC-MS/MS conditions described earlier for Caco-2 samples.

[3] = tested on: human intestinal S9; assay: TDF stability in human intestinal S9 fraction and effect of inhibitors; conditions: for inhibition of TDF hydrolysis: human S9
Procedure: as §3, §4

[4] = tested on: lymphocytes; parameters: method as in PMID 9517941; conditions: cited from earlier work
[5] = in vivo; parameters: species or system Sprague-Dawley rats; conditions: rat, given IV; for AUC: male, Sprague-Dawley, plasma, iv, AUC0-8h
[6] = tested on: rat intestinal homogenates; parameters: method as in PMID 12124311; conditions: cited from earlier work
[7] = tested on: Caco-2 cell monolayers; assay type: in vitro ADME
Procedure: (§5) Caco-2 monolayer experiments were performed as previously described[30] with a few modifications. […] Following incubation, the media was replaced to remove dead cells and prevent the formation of multiple layers of cells settling on the filter. Media was then changed every 2-3 days and plates were used in experiments after a total of 21 days from initial seeding. Monolayer integrity was checked before and after each experiment using a Millicell-ERS instrument to determine the TEER across the monolayer and to ensure that there was no substantial change in monolayer integrity throughout the duration of an experiment. On the day of the experiment, the TEER was assessed and the media in each plate was replaced with warm HBSS (pH 7) and allowed to equilibrate (37°C, 30 min). Apical (for apical-to-basolateral [A-to-B] transport) chambers were replaced with HBSS containing 10 μM (final concentration, n = 3 reps) aqueous solution of drug and inhibitors. Samples were taken from both apical and basolateral compartments at 120 min and diluted into an appropriate solvent to allow drug quantitation using LC-MS/MS.
(§6) Samples from permeability assays were also diluted into Mobile Phase A prior to analysis.
(§7) Mobile Phase A was 3/1/96 acetonitrile/acetic acid/water and Mobile Phase B was 96/1/3 acetonitrile/acetic acid/water. Rather than isocratic elution, a gradient program was used. The gradient program held at 0% B for 1 min, ramped to 98% B from 1 to 2 min, held at 98% B from 2 to 3 min, and then returned to initial conditions. Q1/Q3 ions for TFV-ME and TDF were 404.0/270.0 and 520.1/270.0, respectively.

[8] = tested on: porcine pancrelipase (PL); assay: Stability in SGF and FaSSIF with and without PL; assay type: in vitro ADME; conditions: 37°C; for stability in SGF and FaSSIF: without PL, up to 120 min, TDF 10 μM
Procedure: Samples were incubated at 37°C and quenched with acetonitrile at 0, 15, 30, 60, 90, and 120 min. For each time point, the % TDF or % TFV-ME remaining was determined by LC-MS/MS as described below.

[9] = tested on: MDCK-MDR1 cells (P-gp); assay: MDCK-MDR1 efflux studies; assay type: in vitro ADME, canine; conditions: for Papp, A to B / Papp, B to A: (SEM)
Procedure: (§1) MDCK-MDR1 cells (Netherlands Cancer Institute) were seeded at a density of 3 × 10^5 cells per well onto microporous polycarbonate membranes in 12-well Costar Transwell plates (Corning, Inc.). The cells were incubated for 3 days during which time they formed confluent monolayers. Monolayer integrity was checked using a Millicell-ERS instrument (Millipore) to determine the transepithelial electrical resistance (TEER) across the monolayer. […] […] Competency of the P-gp efflux transporter was confirmed by assay of propranolol (nonsubstrate) and amprenavir (substrate). Cell monolayers were incubated in triplicate with shaking (160 rpm) at 37°C for 2 h. Samples were removed from the apical and basolateral compartments after incubation and assayed for test compound concentrations by LC-MS/MS.
(§2) Conditions were similar to those used for Caco-2 analyses. Differences included the use of a Phenomenex Synergi Hydro-RP column (4 μm, 2.1 × 50 mm) at 60°C, mobile phases of aqueous 0.2% formic acid (A) and neat methanol (B), and a rapid 0.9 min gradient from 0% to 95% B.

[10] = cited from earlier work
[11] = tested on: P-gp; assay: in vitro; assay type: in vitro ADME; conditions: human, Caco-2, pH 7, with none (CsA 0.00 µM)
Procedure: as §5, §6, §7

[12] = tested on: Caco-2 cell monolayers (P-gp); assay: in vitro; assay type: in vitro ADME; conditions: Caco-2, 10 μM TDF, 120 min, no inhibitor (CsA 0.00 µM)
Procedure: as §5, §6, §7

[13] = in vitro; conditions: rat, intestinal S9 fraction
Procedure: as §3, §4

[14] = parameters: method as in ref 50 = [50]; 50 Center for Drug Evaluation and Research (2001) Clinical Pharmacology and Pharmaceutics Review Application Number 21-356, page 78 Available at: http://www.accessdata.fda.gov/drugsatfda_docs/nda/2001; conditions: rat, literature, normalized for dose; cited from earlier work
[15] = in vitro; conditions: human, intestinal S9 fraction
Procedure: as §3, §4

[16] = parameters: method as in PMID 11557462, PMID 15217303; conditions: humans, cited from earlier work
[17] = pH stability of TDF in SGF and FaSSIF; assay type: physicochemical; conditions: 1 mM TDF
Procedure: The pH of fasted state simulated intestinal fluid (FaSSIF)[27] was adjusted with 2M NaOH to pH of 6.8, 9, and 11. Simulated gastric fluid (SGF) was used as is at pH 1.2. TDF solutions (100 mM) were prepared in 99% dimethyl sulfoxide. TDF solutions (1 mM) were prepared by 100-fold dilution in FaSSIF and SGF. The pH of the final solution was not measured.
The TDF stability study at pH 1.2 was measured at 37°C in triplicate at 0, 15, 30, 60, 90, and 120 min. The TDF stability studies at pH 6.8, 9, and 11 were measured at 37°C in triplicate at 0, 30, 60, 120, and 240 min. Samples (5 μL) were quenched by diluting 200-fold with 4°C 0.1% formic acid (35% MeOH). These samples were analyzed by liquid chromatography tandem mass spectrometry (LC-MS/MS).

[18] = tested on: P-gp; assay: MDCK-MDR1 efflux studies; assay type: in vitro ADME, canine; conditions: dog; for Papp B→A at 120 min, 5 µM: (SEM)
Procedure: as §1, §2

[19] = parameters: method as in ref 33 = [33]; 33 Arimilli M. Kim C. Bischofberger N. Dougherty J. Synthesis, in vitro biological evaluation and oral bioavailability of prodrugs of the antiretroviral agent 9-[2-(phosphonomethoxy)-propyl] adenine; conditions: cited from earlier work
[20] = parameters: method as in PMID 9660984; conditions: oral administration of TDF; mice; cited from earlier work
[21] = dog, in vivo; cited from earlier work
[22] = rat S9, 10 μM TDF, 37°C, 10 μM BNPP, 100 μM PMSF, 0.05% wt/vol EM1, 1 mM PP, 1 mM MP, 1 mM EP
[23] = human S9, 10 μM TDF, 37°C, 10 μM BNPP, 100 μM PMSF, 0.05% wt/vol EM1, 1 mM PP, 1 mM MP, 1 mM EP
[24] = Caco-2, versus no inhibitor, 1 mM BNPP, 1 mM PP, 0.05% wt/vol EM1, 0.5 mg/mL TPGS, 10 μM CsA, 2 μM GF918
[25] = Caco-2 A to B, 10 μM, 120 min, 1 mM BNPP, 1 mM PP, 0.05% wt/vol EM1, 0.5 mg/mL TPGS, 10 μM CsA, 2 μM GF918
[26] = MDCK-MDR1, with none (0 µM GF918)

- protection of TDF against PL hydrolysis [1]: did not protect TDF
Structure (SMILES): COC(=O)c1ccc(O)cc1 [MP, methylparaben]
- TDF Rate Constant with inhibitor [2, 22]: -1.297 min⁻¹
- inhibition of TDF hydrolysis ([2]; 100 μM PMSF, 1 mM EP, 1 mM MP): did not show any substantial inhibition
- TDF Rate Constant with inhibitor [3, 23]: -1.065 min⁻¹
- inhibition of TDF hydrolysis ([3]; 100 μM PMSF, 1 mM EP, 1 mM MP): did not show any substantial inhibition

- AUC ([5]; read-out: TFV AUC, Mean): 3210 ng·h/mL
- AUC ([5]; read-out: TFV AUC, Median): 3200 ng·h/mL
- TFV AUC, Median Fold Increase ([5]; versus oral TDF Control): 2.85 fold
Structure (SMILES): C[C@H](Cn1cnc2c(N)ncnc21)OCP(=O)(O)O [TFV, tenofovir]
- intracellular half-life ([4]; activated lymphocytes): 720 to 900 min
- intracellular half-life ([4]; resting lymphocytes): 1980 to 3000 min

Structure (SMILES): CCCOC(=O)c1ccc(O)cc1 [PP, propylparaben]
- protection of TDF against PL hydrolysis [1]: did not protect TDF
- TDF Rate Constant with inhibitor [2, 22]: -0.196 min⁻¹
- TDF Rate Constant with inhibitor [3, 23]: -0.035 min⁻¹
- inhibition of TDF metabolism [6]: 94.5%

Structure (SMILES): CCOC(=O)c1ccc(O)cc1 [EP, ethylparaben]
- TDF Rate Constant with inhibitor [2, 22]: -1.023 min⁻¹
- inhibition of TDF hydrolysis ([2]; 100 μM PMSF, 1 mM EP, 1 mM MP): did not show any substantial inhibition
- TDF Rate Constant with inhibitor [3, 23]: -0.210 min⁻¹
- inhibition of TDF hydrolysis ([3]; 100 μM PMSF, 1 mM EP, 1 mM MP): did not show any substantial inhibition

Structure (SMILES): O=[N+]([O-])c1ccc(OP(=O)(O)Oc2ccc([N+](=O)[O-])cc2)cc1 [BNPP, Bis-para-nitrophenylphosphate]
- Fold Increase, TDF (A to B transport) [7, 24]: 6.2 fold
- Fold Increase, TFV Family (A to B transport) [7, 24]: 3.1 fold
- % Measured Basolateral, TDF (median), with inhibitor(s) [7, 25]: 4.88%
- % Measured Basolateral, TNF (median), with inhibitor(s) [7, 25]: 0.00%
- % Measured Basolateral, TNF-ME (median), with inhibitor(s) [7, 25]: 0.55%
- TDF Rate Constant with inhibitor [2]: -0.016 min⁻¹
- TDF Rate Constant with inhibitor [3]: -0.009 min⁻¹

Structure (SMILES): CC(C)OC(=O)OCOP(=O)(O)CO[C@H](C)Cn1cnc2c(N)ncnc21 [TFV-ME, tenofovir monophosphonate ester]
- half-life in FaSSIF with PL ([8]; 10 μM, PL 480 U/mL): 38.0 ± 2.0 min
- stability in SGF and FaSSIF [8]: stable
- Efflux ratio ([9]; MDCK-MDR1, 0 μM GF918): 2.1
- Papp, A to B ([9]; MDCK-MDR1, 0 μM GF918, 120 min): 4.1 (0.20) nm/s
- Papp, B to A ([9]; MDCK-MDR1, 0 μM GF918, 120 min): 8.8 (0.60) nm/s
- Efflux ratio ([9]; MDCK-MDR1, 2 μM GF918): 0.9
- Papp, A to B ([9]; MDCK-MDR1, 2 μM GF918, 120 min): 5.3 (0.61) nm/s
- Papp, B to A ([9]; MDCK-MDR1, 2 μM GF918, 120 min): 5.0 (0.58) nm/s

Structure (SMILES): O=S(=O)(F)Cc1ccccc1 [PMSF, phenylmethylsulfonyl fluoride]
- TDF Rate Constant with inhibitor [2, 22]: -1.064 min⁻¹
- inhibition of TDF hydrolysis ([2]; 100 μM PMSF, 1 mM EP, 1 mM MP): did not show any substantial inhibition
- TDF Rate Constant with inhibitor [3, 23]: -0.185 min⁻¹
- inhibition of TDF hydrolysis ([3]; 100 μM PMSF, 1 mM EP, 1 mM MP): did not show any substantial inhibition

Structure (SMILES): CC(C)OC(=O)OCOP(=O)(CO[C@H](C)Cn1cnc2c(N)ncnc21)OCOC(=O)OC(C)C [TDF, Tenofovir disoproxil fumarate]
- pKa [10]: 3.75
- partition coefficient (log P) [10]: 1.25
- Biopharmaceutics Classification System class ([10]; high solubility and low permeability): class 3
- water solubility ([10]; room temperature): 15.3 mg/mL
- Papp A→B at 120 min, 10 µM ([11]; Caco-2, 10 μM TDF, 120 min, no inhibitor (CsA 0.00 µM)): 0.7 ×10⁻⁶ cm/s
- efflux ratio at 120 min, 10 µM ([11]; read-out: TDF E.R. (efflux ratio)): 12
- Papp B→A at 120 min, 10 µM ([11]; read-out: TDF Papp, B to A): 8.16 ×10⁻⁶ cm/s
- TDF Papp, A to B [12]: 0.698 ×10⁻⁶ cm/s
- half-life at 10 µM ([8]; pig, porcine pancrelipase (PL) in FaSSIF, 10 μM, PL 480 U/mL): 2 ± 2.3 min
- stability in SGF and FaSSIF [8]: stable
- half-life at 10 µM ([1]; porcine pancrelipase (PL) in FaSSIF, FaSSIF): 6.35 min
- half-life at 10 µM ([1]; porcine pancrelipase (PL) in transport media, transport media): 7.59 min
- half-life at 10 µM [13]: 0.58 ± 1.79 min
- % Measured Basolateral, TDF (median) ([7]; Caco-2 A to B, 10 μM, 120 min, no esterase inhibitor, no P-gp inhibitor): 0.78%
- TDF Rate Constant ([2]; rat S9 0.5 mg protein/mL, 10 μM TDF, 37°C, Buffer (no inhibitor)): -1.200 min⁻¹
- AUC [14]: 1490 ng·h/mL
- half-life at 10 µM [15]: 0.62 ± 1.29 min
- TDF oral bioavailability following a high fat meal ([16]; after high fat meal): 39%
- oral bioavailability of TFV ([16]; oral administration of TDF): under 30%
- half-life at 1 mM ([17]; FaSSIF pH 6.8, 37°C): 16.6 ± 3.4 h
- half-life at 1 mM ([17]; FaSSIF pH 9, 37°C): 2.9 ± 0.2 h
- half-life at 1 mM ([17]; FaSSIF pH 11, 37°C): 0.0567 ± 0.102 h
- half-life at 1 mM ([17]; SGF pH 1.2, 37°C): > 55 h
- Papp, B to A ([9]; MDCK-MDR1, 0 μM GF918, 120 min): 295.0 (6.1) nm/s
- Papp A→B at 120 min, 5 µM ([18]; MDCK-MDR1, with GF918 2 µM): 2.25 ×10⁻⁶ cm/s
- efflux ratio at 2 h, 5 µM ([18]; MDCK-MDR1, with GF918 2 µM): 1.5
- Papp B→A at 120 min, 5 µM ([18]; MDCK-MDR1, with GF918 2 µM, MDCK-MDR1, 2 μM GF918, 120 min): 3.41 ×10⁻⁶ cm/s
- Papp A→B at 120 min, 5 µM [18, 26]: 0.67 ×10⁻⁶ cm/s
- efflux ratio at 2 h, 5 µM [18, 26]: 44.2
- Papp B→A at 120 min, 5 µM ([18]; MDCK-MDR1, with none (0 µM GF918), MDCK-MDR1, 0 μM GF918, 120 min): 29.5 ×10⁻⁶ cm/s
- half-life ([19]; pH 2.2, 37°C): > 150 h
- half-life ([19]; pH 7.4, 37°C): 8 h
- TDF Rate Constant ([3]; human S9 0.5 mg protein/mL, 10 μM TDF, 37°C, Buffer (no inhibitor)): -1.123 min⁻¹
- oral bioavailability of TFV [20]: 20%
- oral bioavailability of TFV [21]: 30%
